What all share (assay type): biochemical
One experiment has as its target T1, TrkA (Homo sapiens, UniProt P04629).
T1 construct: purchased Upstate 14-571
In words: Inhibition of kinase TrkA (Kinase-Glo). The note with it: TrkA 4 μg/ml, 30 μM ATP, two hours at 30° C. As for the experimental part:
Protein TrkA (Upstate 14-571; batch #25634U) is incubated at a concentration of 4 μg/ml in a buffer containing 8 mM of MOPS/NaOH pH7, 0.2 mM EDTA, 40 mM MgAc (Sigma #229768), 1 mM DTT (Fluka #43816), NaOV 1 mM, 0.01% Triton Tx100, in the presence of 1 mg/ml of peptide substrate poly-EY (Upstate #P0275), and 30 μM of ATP.
The dilution buffer for TrkA is as follows: 20 mM MOPS/NaOH pH7, 1 mM EDTA, 5% glycerol, 0.01% Brij35, 0.1% 2-mercapto, 1 mg/ml BSA.
(§1) The compound to be tested is first added to the enzyme to give a reaction volume of 50 μl. The dilution of the compounds of the invention is distributed so as to obtain a scale of final concentrations between 10 nM and 30 μM.
(§2) After incubation of the reaction mixture for two hours at 30° C., the level of ATP that remains is assayed using the Kinase-Glo Luminescent Kinase Assay (Promega #V6712) according to the conditions recommended by the supplier. The luminescence induced is read in a plate reader (Envision-Perkin Elmer).
On the technique in general: Kinase-Glo reads ATP consumption through a luciferase reaction.

The next experiment concerns the target T2, TrkB (Homo sapiens, UniProt Q16620).
T2 construct: purchased Upstate 14-507
In words: Inhibition of kinase TrkB (Kinase-Glo). The note with it: TrkB 4 μg/ml, 40 μM ATP, two hours at 30° C. As for the experimental part: Protein TrkB (Upstate 14-507; batch #25578U) is incubated at a concentration of 4 μg/ml in a buffer containing 8 mM of MOPS/NaOH pH7, 0.2 mM EDTA, 40 mM MgAc (Sigma #229768), 1 mM DTT (Fluka #43816), NaOV 1 mM, 25 mM 2-glycerolphosphate (Sigma #G9891), in the presence of 2.5 mg/ml of peptide substrate poly-EY (Upstate #P0275), and 40 μM of ATP.
The dilution buffer for TrkB is as follows: 20 mM MOPS/NaOH pH7, 1 mM EDTA, 5% glycerol, 0.01% Brij35, 0.1% 2-mercapto, 1 mg/ml BSA.
as §1, §2

The next experiment concerns the target T3, RET (Homo sapiens, UniProt P07949).
T3 construct: purchased Upstate 14-570MG
In words: Inhibition of RET kinase activity, recombinant RET method (Kinase-Glo). The note with it: RET 2 μg/ml, poly-EY4 substrate, 20 μM ATP, two hours at 30° C. Summed up: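 Recombinant RET at 2 μg/ml in 20 mM MOPS/NaOH pH 7.0, 1 mM EDTA, 5% glycerol, 0.01% Brij35, 0.1% 2-mercaptoethanol, 1 mg/ml BSA; compounds 10 nM–30 μM final.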

The target in a further experiment is T4, PIM-1 (Homo sapiens, UniProt P11309).
T4 construct: purchased Upstate 14-573
In words: Inhibition of kinase PIM-1 (Kinase-Glo). The note with it: PIM-1 0.625 μg/ml, 10 μM ATP, forty minutes at 30° C. As for the experimental part: Protein PIM-1 (Upstate #14-573 batch 25864U) is incubated at a concentration of 0.625 μg/ml in a buffer containing 8 mM of MOPS/NaOH pH7, 0.2 mM EDTA, 5 mM MgAc (Sigma #229768), 0.01% Triton Tx100, in the presence of 70 μM of peptide substrate S6 Kinase/Rsk2 (Upstate #12-243), and 10 μM of ATP.
The dilution buffer for PIM-1 is as follows: 20 mM MOPS/NaOH pH7, 1 mM EDTA, 5% glycerol, 0.01% Brij35, 0.1% 2-mercapto, 1 mg/ml BSA
as §1
After incubation of the reaction mixture for forty minutes at 30° C., the level of ATP that remains is assayed using the Kinase-Glo Luminescent Kinase Assay (Promega #V6712) according to the conditions recommended by the supplier. The luminescence induced is read in a plate reader (Envision-Perkin Elmer).

pIC50: −log10 of the molar value. Counter-ions that a name gives are not always drawn.

T1 sequence (P04629 33-796): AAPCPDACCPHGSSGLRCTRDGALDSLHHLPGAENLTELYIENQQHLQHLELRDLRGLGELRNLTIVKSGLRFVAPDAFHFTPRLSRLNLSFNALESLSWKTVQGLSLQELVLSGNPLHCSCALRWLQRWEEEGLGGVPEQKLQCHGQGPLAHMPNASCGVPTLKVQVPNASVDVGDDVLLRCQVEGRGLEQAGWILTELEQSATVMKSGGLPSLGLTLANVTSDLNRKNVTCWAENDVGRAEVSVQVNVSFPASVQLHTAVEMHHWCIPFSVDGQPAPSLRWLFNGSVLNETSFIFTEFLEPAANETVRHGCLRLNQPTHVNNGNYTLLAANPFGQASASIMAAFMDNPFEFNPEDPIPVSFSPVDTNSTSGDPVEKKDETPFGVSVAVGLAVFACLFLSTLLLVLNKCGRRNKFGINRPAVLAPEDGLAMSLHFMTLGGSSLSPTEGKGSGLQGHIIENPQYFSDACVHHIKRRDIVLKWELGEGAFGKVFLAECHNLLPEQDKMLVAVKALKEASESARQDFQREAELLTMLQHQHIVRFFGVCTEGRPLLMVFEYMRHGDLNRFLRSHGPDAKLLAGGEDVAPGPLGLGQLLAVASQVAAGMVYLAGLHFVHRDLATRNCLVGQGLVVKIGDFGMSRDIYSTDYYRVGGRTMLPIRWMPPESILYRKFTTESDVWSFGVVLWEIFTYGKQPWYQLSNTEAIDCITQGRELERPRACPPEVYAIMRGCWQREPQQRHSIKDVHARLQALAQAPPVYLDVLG
T3 sequence (P07949 29-1114): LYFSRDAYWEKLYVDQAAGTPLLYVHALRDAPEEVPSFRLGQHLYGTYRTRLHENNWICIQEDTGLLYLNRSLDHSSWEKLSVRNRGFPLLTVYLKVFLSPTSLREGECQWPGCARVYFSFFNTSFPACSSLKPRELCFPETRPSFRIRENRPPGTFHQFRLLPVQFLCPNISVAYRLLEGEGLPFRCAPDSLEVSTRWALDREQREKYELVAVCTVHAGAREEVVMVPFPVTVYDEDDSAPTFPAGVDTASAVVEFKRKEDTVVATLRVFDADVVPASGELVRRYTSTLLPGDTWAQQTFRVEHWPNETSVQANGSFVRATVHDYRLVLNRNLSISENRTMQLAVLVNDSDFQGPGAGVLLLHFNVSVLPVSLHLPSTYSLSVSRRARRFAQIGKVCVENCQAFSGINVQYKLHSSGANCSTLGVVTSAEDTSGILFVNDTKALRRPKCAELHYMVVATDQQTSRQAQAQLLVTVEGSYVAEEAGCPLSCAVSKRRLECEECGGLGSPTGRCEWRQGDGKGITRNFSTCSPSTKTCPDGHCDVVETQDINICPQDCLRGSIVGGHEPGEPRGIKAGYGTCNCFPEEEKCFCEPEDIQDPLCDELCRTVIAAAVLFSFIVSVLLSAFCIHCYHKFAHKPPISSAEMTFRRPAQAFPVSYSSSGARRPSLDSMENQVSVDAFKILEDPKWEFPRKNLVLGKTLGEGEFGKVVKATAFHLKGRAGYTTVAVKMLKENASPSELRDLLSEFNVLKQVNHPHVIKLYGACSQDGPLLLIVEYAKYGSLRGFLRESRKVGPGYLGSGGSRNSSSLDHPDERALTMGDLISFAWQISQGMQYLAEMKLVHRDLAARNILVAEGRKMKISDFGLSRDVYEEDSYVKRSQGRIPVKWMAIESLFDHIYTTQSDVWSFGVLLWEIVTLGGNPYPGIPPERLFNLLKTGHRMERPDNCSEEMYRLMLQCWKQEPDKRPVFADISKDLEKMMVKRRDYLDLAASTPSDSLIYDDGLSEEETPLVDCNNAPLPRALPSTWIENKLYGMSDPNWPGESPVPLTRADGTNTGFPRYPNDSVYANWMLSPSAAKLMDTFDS
T4 sequence (P11309 whole entry): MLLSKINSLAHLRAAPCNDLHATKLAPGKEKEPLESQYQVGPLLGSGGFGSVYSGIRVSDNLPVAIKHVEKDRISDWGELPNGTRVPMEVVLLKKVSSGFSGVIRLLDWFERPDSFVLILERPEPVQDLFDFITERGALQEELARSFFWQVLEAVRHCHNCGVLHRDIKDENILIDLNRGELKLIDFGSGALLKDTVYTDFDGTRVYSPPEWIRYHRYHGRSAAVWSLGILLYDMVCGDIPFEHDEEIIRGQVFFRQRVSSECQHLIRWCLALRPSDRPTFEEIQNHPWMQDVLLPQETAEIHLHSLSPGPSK
T2 sequence (Q16620 32-822): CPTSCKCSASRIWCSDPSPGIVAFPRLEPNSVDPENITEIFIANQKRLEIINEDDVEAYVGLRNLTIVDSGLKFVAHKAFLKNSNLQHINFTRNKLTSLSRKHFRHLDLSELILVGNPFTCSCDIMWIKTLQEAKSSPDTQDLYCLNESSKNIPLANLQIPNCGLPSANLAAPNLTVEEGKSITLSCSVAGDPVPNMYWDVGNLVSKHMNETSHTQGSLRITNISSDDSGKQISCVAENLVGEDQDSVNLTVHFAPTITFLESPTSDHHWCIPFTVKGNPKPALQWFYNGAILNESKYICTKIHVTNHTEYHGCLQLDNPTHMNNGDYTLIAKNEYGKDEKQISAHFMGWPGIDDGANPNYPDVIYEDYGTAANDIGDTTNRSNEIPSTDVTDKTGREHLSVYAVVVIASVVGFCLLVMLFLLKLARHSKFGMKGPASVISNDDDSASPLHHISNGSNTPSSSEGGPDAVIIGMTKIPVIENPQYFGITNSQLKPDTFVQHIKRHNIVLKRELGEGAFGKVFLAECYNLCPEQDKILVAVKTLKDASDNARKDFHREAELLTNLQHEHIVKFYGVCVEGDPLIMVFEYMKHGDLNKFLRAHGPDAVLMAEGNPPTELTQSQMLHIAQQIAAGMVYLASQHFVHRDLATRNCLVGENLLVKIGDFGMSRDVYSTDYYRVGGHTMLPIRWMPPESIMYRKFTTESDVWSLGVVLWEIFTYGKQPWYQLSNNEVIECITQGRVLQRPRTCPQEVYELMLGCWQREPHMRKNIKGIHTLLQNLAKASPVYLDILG

For the compound `CCOC(=O)c1c[nH]c2c(=O)[nH]c3ccc(N(C)S(=O)(=O)c4ccccc4)cc3c12` [Compound 58, 8-(Benzenesulfonyl-methyl-amino)-4-oxo-4,5-dihydro-3H-pyrrolo[2,3-c]quinoline-1-ethyl carboxylate], the pIC50 – broadly, the negative decadic logarithm of the IC50, by convention in mol/L – against TrkA was 5.00 to 6.00; at TrkB, 5.00 to 6.00; at RET, 6.00 to 7.00.

Turning to `CCOC(=O)c1c[nH]c2c(=O)[nH]c3ccc(S(=O)(=O)Nc4ccc(C)cc4)cc3c12` [Compound 6, 4-Oxo-8-p-tolylsulfamoyl-4,5-dihydro-3H-pyrrolo[2,3-c]quinoline-1-ethyl carboxylate], the negative logarithm of the IC50 (pIC50) on TrkA is 4.00 to 5.00; against TrkB, 4.00 to 5.00; on RET, 6.00 to 7.00.

`CCOC(=O)c1c[nH]c2c(=O)[nH]c3ccc(NS(=O)(=O)c4ccc(F)cc4)cc3c12` [Compound 43, 8-(4-Fluoro-benzenesulfonylamino)-4-oxo-4,5-dihydro-3H-pyrrolo[2,3-c]quinoline-1-ethyl carboxylate]: the pIC50 on TrkA is 5.00 to 6.00; against TrkB, 5.00 to 6.00; on RET, 6.00 to 7.00.

Regarding `CCOC(=O)c1c[nH]c2c(=O)[nH]c3ccc(S(=O)(=O)Nc4cccc(OC)c4)cc3c12` [Compound 8, 8-(3-Methoxy-phenylsulfamoyl)-4-oxo-4,5-dihydro-3H-pyrrolo[2,3-c]quinoline-1-ethyl carboxylate], the negative-log IC50 (pIC50) on TrkA is 4.00 to 5.00; against TrkB, 4.00 to 5.00; at RET it was 6.00 to 7.00.

`CN(C)CCNC(=O)c1c[nH]c2c(=O)[nH]c3ccccc3c12` [Compound 79, N-(2-Dimethylamino-ethyl)-4-oxo-4,5-dihydro-3H-pyrrolo[2,3-c]quinoline-1-carboxamide]: the negative logarithm of the IC50 (pIC50) on PIM-1 and on RET was 4.00 to 5.00 throughout.

As for `CCOC(=O)c1c[nH]c2c(=O)[nH]c3ccc(Br)cc3c12` [Compound 71, 8-Bromo-4-oxo-4,5-dihydro-3H-pyrrolo[2,3-c]quinoline-1-ethyl carboxylate], the pIC50 against PIM-1 was 5.00 to 6.00; on RET, 6.00 to 7.00.

With `CCOC(=O)c1c[nH]c2c(=O)[nH]c3ccc(NS(=O)(=O)c4ccc(C(C)(C)C)cc4)cc3c12` [Compound 49, 8-(4-tert-Butyl-benzenesulfonylamino)-4-oxo-4,5-dihydro-3H-pyrrolo[2,3-c]quinoline-1-ethyl carboxylate], the negative logarithm of the IC50 (pIC50) on TrkA was 4.00 to 5.00; against TrkB, 5.00 to 6.00; on RET, 4.00 to 5.00.

Consider `COC(=O)c1c[nH]c2c(=O)[nH]c3ccc(S(=O)(=O)N4CCN(C)CC4)cc3c12` [Compound 95, 8-(4-Methyl-piperazine-1-sulfonyl)-4-oxo-4,5-dihydro-3H-pyrrolo[2,3-c]quinoline-1-methyl carboxylate], for which the results for the negative logarithm of the IC50 (pIC50) on PIM-1 and at RET were 4.00 to 5.00 and 5.00 to 6.00, respectively.

Take `CCOC(=O)c1c[nH]c2c(=O)[nH]c3ccc(-c4ccc(Cl)nc4)cc3c12` [Compound 259, 8-(6-Chloro-pyridin-3-yl)-4-oxo-4,5-dihydro-3H-pyrrolo[2,3-c]quinoline-1-ethyl carboxylate]: the pIC50 against PIM-1 and on RET was 5.00 to 6.00 throughout.

Regarding `CCOC(=O)c1c[nH]c2c(=O)[nH]c3ccc(-c4ccnc(N(C)CCN(C)C)n4)cc3c12` [Compound 269, 8-{2-[(2-Dimethylamino-ethyl)-methyl-amino]-pyrimidin-4-yl}-4-oxo-4,5-dihydro-3H-pyrrolo[2,3-c]quinoline-1-ethyl carboxylate formate], the pIC50 against PIM-1 and at RET was 5.00 to 6.00 in each case.

For the compound `CCOC(=O)c1c[nH]c2c(=O)[nH]c3ccc(SC4CCCCC4)cc3c12` [Compound 221, 8-Cyclohexylsulfanyl-4-oxo-4,5-dihydro-3H-pyrrolo[2,3-c]quinoline-1-ethyl carboxylate], the pIC50 is 5.00 to 6.00 at PIM-1 and 6.00 to 7.00 at RET.

For `CCOC(=O)c1c[nH]c2c(=O)[nH]c3ccc(NS(=O)(=O)c4ccccc4F)cc3c12` [Compound 45, 8-(2-Fluoro-benzenesulfonylamino)-4-oxo-4,5-dihydro-3H-pyrrolo[2,3-c]quinoline-1-ethyl carboxylate], the pIC50 against TrkA, on TrkB and at RET was 5.00 to 6.00 each time.

As for `CCOC(=O)c1c[nH]c2c(=O)[nH]c3ccc(-c4ccnc(N5CCN(C(C)=O)CC5)n4)cc3c12` [Compound 268, 8-[2-(4-Acetyl-piperazin-1-yl)-pyrimidin-4-yl]-4-oxo-4,5-dihydro-3H-pyrrolo[2,3-c]quinoline-1-ethyl carboxylate], the negative logarithm of the IC50 (pIC50) against PIM-1 and on RET was 5.00 to 6.00 in each case.

In the case of `CCOC(=O)c1c[nH]c2c(=O)[nH]c3ccc(-c4cccc(N)c4)cc3c12` [Compound 234, Trifluoroacetate of 8-(3-aminophenyl)-4-oxo-4,5-dihydro-3H-pyrrolo[2,3-c]quinoline-1-ethyl carboxylate], the pIC50 is 5.00 to 6.00 at TrkA, 5.00 to 6.00 against TrkB and 6.00 to 7.00 on RET.

Turning to `CCOC(=O)c1c[nH]c2c(=O)[nH]c3ccc(S(=O)(=O)N4CCCC4)cc3c12` [Compound 162, 4-Oxo-8-(pyrrolidine-1-sulfonyl)-4,5-dihydro-3H-pyrrolo[2,3-c]quinoline-1-ethyl carboxylate], the figures for the pIC50 on TrkA, at TrkB and on RET were 5.00 to 6.00, 5.00 to 6.00 and 6.00 to 7.00, respectively.

Take `CCOC(=O)c1c[nH]c2c(=O)[nH]c3ccc(-c4csc(C5CCNCC5)n4)cc3c12` [Compound 277, 4-Oxo-8-(2-piperidin-4-yl-thiazol-4-yl)-4,5-dihydro-3H-pyrrolo[2,3-c]quinoline-1-ethyl carboxylate]: the pIC50 on PIM-1 is 5.00 to 6.00; at RET, 6.00 to 7.00.

`CCOC(=O)c1c[nH]c2c(=O)[nH]c3ccc(S(=O)(=O)N(C)c4cccc(Cl)c4)cc3c12` [Compound 34, 8-[(3-Chlorophenyl)-methyl-sulfamoyl)-4-oxo-4,5-dihydro-3H-pyrrolo[2,3-c]quinoline-1-ethyl carboxylate]: the values for the pIC50 against PIM-1 and on RET were 5.00 to 6.00 and 6.00 to 7.00, respectively.

On to `CCOC(=O)c1c[nH]c2c(=O)[nH]c3ccc([N+](=O)[O-])cc3c12` [Compound 66, 8-Nitro-4-oxo-4,5-dihydro-3H-pyrrolo[2,3-c]quinoline-1-ethyl carboxy late], for which the negative-log IC50 (pIC50) against PIM-1 and at RET was 5.00 to 6.00 throughout.

Regarding `O=C(OC1CCCC1)c1c[nH]c2c(=O)[nH]c3ccc(S(=O)(=O)NC4CCNCC4)cc3c12` [Compound 116, 4-Oxo-8-(piperidin-4-ylsulfamoyl)-4,5-dihydro-3H-pyrrolo[2,3-c]quinoline-1-cyclopentyl carboxylate], the results for the pIC50 at PIM-1 and at RET were 5.00 to 6.00 and over 7.00, respectively.

For `CCOC(=O)c1c[nH]c2c(=O)[nH]c3ccc(-c4ccnc(Nc5ccccc5)n4)cc3c12` [Compound 266, 4-Oxo-8-(2-phenylamino-pyrimidin-4-yl)-4,5-dihydro-3H-pyrrolo[2,3-c]quinoline-1-ethyl carboxylate], the pIC50 on TrkA, at TrkB and on RET was 5.00 to 6.00 in each case.

As for `CCOC(=O)c1c[nH]c2c(=O)[nH]c3ccc(I)cc3c12` [Compound 209, 8-Iodo-4-oxo-4,5-dihydro-3H-pyrrolo[2,3-c]quinoline-1-ethyl carboxylate], the pIC50 against PIM-1 and on RET was 6.00 to 7.00 in each case.

On to `O=C(OCC1CCOC1)c1c[nH]c2c(=O)[nH]c3ccc(S(=O)(=O)NC4CCNCC4)cc3c12` (centres unmarked) [Compound 118, 4-Oxo-8-(piperidin-4-ylsulfamoyl)-4,5-dihydro-3H-pyrrolo[2,3-c]quinoline-1-methyltetrahydrofuran-3-yl carboxylate], for which the negative logarithm of the IC50 (pIC50) against PIM-1 is 4.00 to 5.00; at RET, 6.00 to 7.00.

The record behind these values is patent US8426437B2, “Pyrroloquinoline derivatives and their use as protein kinases inhibitors” (Pierre Fabre Medicament, priority 2005, dated 2013).
